According to the supplement of paper PMC10307832:

What was measured:
Assay in all cases: relative viability (nuclei count vs DMSO), 5 days (fraction); higher = more cells survive
NCI-H1975 = test system: NCI-H1975
Summary of the method: (§1)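 Relative viability was taken as the ratio of nuclei in treated wells to nuclei in vehicle wells. Lung cancer cell lines in 1536-well plates received compounds by pin tool one day after seeding, either one drug alone or a fixed anchor-drug dose plus five library-drug doses (not always all listed) in √10 steps. Nuclei were counted on 4× images after 5 days of treatment, and values are medians of duplicate plates.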

NCI-H2126 = test system: NCI-H2126
Summary of the method: as §1

NCI-H2342 = test system: NCI-H2342
Summary of the method: as §1

NCI-H23 = test system: NCI-H23
Summary of the method: as §1

NCI-H2405 = test system: NCI-H2405
Summary of the method: as §1

NCI-H322M = test system: NCI-H322M
Summary of the method: as §1

PC-14 = test system: PC-14
Summary of the method: as §1

RERF-LC-KJ = test system: RERF-LC-KJ
Summary of the method: as §1

SK-LU-1 = test system: SK-LU-1
Summary of the method: as §1

SW 1573 = test system: SW 1573
Summary of the method: as §1

SW 900 = test system: SW 900
Summary of the method: as §1

Nc1ccn([C@@H]2O[C@H](CO)[C@@H](O)[C@@H]2O)c(=O)n1 [Cytarabine] + Nc1nc2[nH]cc(CCc3ccc(C(=O)N[C@@H](CCC(=O)O)C(=O)O)cc3)c2c(=O)[nH]1 [Pemetrexed] (partner 0.2 µM)
relative viability (NCI-H1975; first compound 0.005 µM): 0.255 | relative viability (NCI-H1975; first compound 0.01581 µM): 0.287 | relative viability (NCI-H1975; first compound 0.05 µM): 0.297 | relative viability (NCI-H1975; first compound 0.1581 µM): 0.28 | relative viability (NCI-H1975; first compound 0.5 µM): 0.266 | relative viability (NCI-H2126; first compound 0.005 µM): 0.76 | relative viability (NCI-H2126; first compound 0.01581 µM): 0.775 | relative viability (NCI-H2126; first compound 0.05 µM): 0.525 | relative viability (NCI-H2126; first compound 0.1581 µM): 0.549 | relative viability (NCI-H2126; first compound 0.5 µM): 0.46 | relative viability (NCI-H2342; first compound 0.005 µM): 0.667 | relative viability (NCI-H2342; first compound 0.01581 µM): 0.707 | relative viability (NCI-H2342; first compound 0.05 µM): 0.638 | relative viability (NCI-H2342; first compound 0.1581 µM): 0.504 | relative viability (NCI-H2342; first compound 0.5 µM): 0.353 | relative viability (NCI-H23; first compound 0.005 µM): 0.611 | relative viability (NCI-H23; first compound 0.01581 µM): 0.527 | relative viability (NCI-H23; first compound 0.05 µM): 0.445 | relative viability (NCI-H23; first compound 0.1581 µM): 0.172 | relative viability (NCI-H23; first compound 0.5 µM): 0.159 | relative viability (NCI-H2405; first compound 0.005 µM): 1 | relative viability (NCI-H2405; first compound 0.01581 µM): 0.654 | relative viability (NCI-H2405; first compound 0.05 µM): 0.61 | relative viability (NCI-H2405; first compound 0.1581 µM): 0.495 | relative viability (NCI-H2405; first compound 0.5 µM): 0.41 | relative viability (NCI-H322M; first compound 0.005 µM): 0.609 | relative viability (NCI-H322M; first compound 0.01581 µM): 0.628 | relative viability (NCI-H322M; first compound 0.05 µM): 0.572 | relative viability (NCI-H322M; first compound 0.1581 µM): 0.408 | relative viability (NCI-H322M; first compound 0.5 µM): 0.384 | relative viability (PC-14; first compound 0.005 µM): 0.183 | relative viability (PC-14; first compound 0.01581 µM): 0.156 | relative viability (PC-14; first compound 0.05 µM): 0.187 | relative viability (PC-14; first compound 0.1581 µM): 0.0581 | relative viability (PC-14; first compound 0.5 µM): 0.0565 | relative viability (RERF-LC-KJ; first compound 0.005 µM): 0.453 | relative viability (RERF-LC-KJ; first compound 0.01581 µM): 0.502 | relative viability (RERF-LC-KJ; first compound 0.05 µM): 0.381 | relative viability (RERF-LC-KJ; first compound 0.1581 µM): 0.34 | relative viability (RERF-LC-KJ; first compound 0.5 µM): 0.249 | relative viability (SK-LU-1; first compound 0.005 µM): 0.827 | relative viability (SK-LU-1; first compound 0.01581 µM): 0.732 | relative viability (SK-LU-1; first compound 0.05 µM): 0.642 | relative viability (SK-LU-1; first compound 0.1581 µM): 0.377 | relative viability (SK-LU-1; first compound 0.5 µM): 0.331 | relative viability (SW 1573; first compound 0.005 µM): 0.675 | relative viability (SW 1573; first compound 0.01581 µM): 0.576 | relative viability (SW 1573; first compound 0.05 µM): 0.386 | relative viability (SW 1573; first compound 0.1581 µM): 0.107 | relative viability (SW 1573; first compound 0.5 µM): 0.0809 | relative viability (SW 900; first compound 0.005 µM): 0.432 | relative viability (SW 900; first compound 0.01581 µM): 0.499 | relative viability (SW 900; first compound 0.05 µM): 0.441 | relative viability (SW 900; first compound 0.1581 µM): 0.179 | relative viability (SW 900; first compound 0.5 µM): 0.143
